Entries after “also recorded” stand apart in the source; their conditions may differ.
Columns and labels:
[1] = biological target: T1, LXRα (Homo sapiens, UniProt Q13133); assay: Gal4-LXRα hybrid reporter gene assay; type: cell-based
T1 construct: coding for the hinge region, and LBD of the canonical isoform of the respective nuclear receptor; expressed in transfected cells; host or cells: HEK293T
T1 sequence (Q13133 209-447 limits assumed): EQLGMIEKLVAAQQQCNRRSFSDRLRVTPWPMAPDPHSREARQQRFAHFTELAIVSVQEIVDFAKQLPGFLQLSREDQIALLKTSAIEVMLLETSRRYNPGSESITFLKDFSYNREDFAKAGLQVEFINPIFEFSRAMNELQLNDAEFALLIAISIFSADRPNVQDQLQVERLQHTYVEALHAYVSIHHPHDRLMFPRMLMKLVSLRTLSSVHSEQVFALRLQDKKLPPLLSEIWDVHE
Protocol: (§1) The LXR-responsive reporter ABCA1-pGL3 was used for the full-length reporter gene assay.
(§2) The day before transfection, HEK293T cells were seeded in 96-well plates (4 × 10^4 cells/well). Before transfection, the medium was changed to Opti-MEM without any supplements. Transient transfection was carried out using Lipofectamine LTX reagent (Invitrogen) according to the manufacturer’s protocol with (a) pFR-Luc (Stratagene), pRL-SV40 (Promega), and the corresponding Gal4-fusion nuclear receptor plasmid or (b) the LXR-responsive reporter ABCA1-pGL3 and pRL-SV40 (Promega). […] Each concentration was tested in duplicate, and each experiment was repeated in at least three biologically independent repeats. […] Luminescence was measured with a Spark 10 M luminometer (Tecan Deutschland GmbH). Normalization of transfection efficiency and cell growth was done by division of firefly luciferase data by renilla luciferase data multiplied by 1000, resulting in relative light units (RLU). Fold activation was obtained by dividing the mean RLU of the tested compound at a respective concentration by the mean RLU of the untreated 0.1% DMSO control. […] Separate control experiments to exclude nonspecific reporter gene activation or VP16-mediated effects were performed following the same procedure in the absence of a nuclear receptor expression plasmid (pFR-Luc, pRL-SV40, and pECE-SV40-Gal4-VP16 only).

[2] = tested on: HEK293T cells; assay: resazurin-based proliferation assay, HEK293T; type: cell-based; details: 10 μM
Protocol: (§3) HepG2 or HEK293T cells were seeded in 96-well plates (4 × 10^4 cells per well). […] After 4, 14, and 24 h, the medium was aspirated, and the cells were incubated with 100 μM resazurin solution in Opti-MEM (prepared from a 0.15 mg/mL resazurin stock in DPBS) for 60 min. The metabolic activity was assessed by conversion of resazurin to resorufin, which was quantified by measuring absorbance at 570 nm and a reference wavelength of 600 nm. The cell count was calculated from a calibration curve with 0–10^5 cells per well in steps of 2 × 10^4.

[3] = biological target: T2, LXRβ (Homo sapiens, UniProt P55055); assay: Gal4-LXRβ hybrid reporter gene assay; type: cell-based; details: classification agonist; read-out: LXRb pEC50/pIC50 (converted)
T2 construct: coding for the hinge region, and LBD of the canonical isoform of the respective nuclear receptor; expressed in transfected cells; host or cells: HEK293T
T2 sequence (P55055 222-460 limits assumed): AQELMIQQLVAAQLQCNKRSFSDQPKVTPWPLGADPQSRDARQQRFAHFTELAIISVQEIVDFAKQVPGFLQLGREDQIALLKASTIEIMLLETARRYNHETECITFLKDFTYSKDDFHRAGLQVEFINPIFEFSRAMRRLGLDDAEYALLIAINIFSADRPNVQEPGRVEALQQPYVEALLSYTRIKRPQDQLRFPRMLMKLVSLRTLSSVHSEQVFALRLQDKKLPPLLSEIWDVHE
Protocol: as §1, §2

[4] = tested on: LXR/retinoid X receptor (RXR) heterodimer; assay: full-length LXR assay (LXR-responsive ABCA1 reporter, endogenous LXR) in HEK293T and HepG2 cells; type: cell-based; details: 3 μM, vs 0.1% DMSO
From the text: Intrigued by the initial data on LXR modulation, we further investigated the mode-of-action of designs 1-3. As the Gal4 hybrid reporter gene assay is artificial and overexpresses LXR, we next examined LXR modulation by 1-3 in a full-length LXR assay (Figure a) based on the endogenous expression of the LXR/retinoid X receptor (RXR) heterodimer (Figure S2). Upon activation, LXR binds to response elements within the ATP-binding cassette transporter A1 (ABCA1, an LXR target gene) promoter of the reporter. […] The designs were next checked for antiproliferative effects that may compromise further in vitro characterization. […] Therefore, and due to the weak efficacy of 2, we focused further biological characterization on 1 and 3.
For the hybrid reporter gene assays, the previously reported Gal4-fusion receptor plasmids pFA-CMV-hRORα-LBD, pFA-CMV-hRORβ-LBD, pFA-CMV-hRORγ-LBD, pFA-CMV-hLXRα-LBD, pFA-CMV-hLXRβ-LBD, pFA-CMV-hFXR-LBD, pFA-CMV-hPXR-LBD, and pFA-CMV-hRXRα-LBD, coding for the hinge region, and LBD of the canonical isoform of the respective nuclear receptor were used. pFR-Luc (Stratagene) was used as the reporter plasmid, and pRL-SV40 (Promega) was used in all assays for the normalization of transfection efficiency and cell growth. pECE-SV40-Gal4-VP16 was a gift from Lea Sistonen (Addgene plasmid #71728). The LXR-responsive reporter ABCA1-pGL3 was used for the full-length reporter gene assay.
The day before transfection, HEK293T cells were seeded in 96-well plates (4 × 10^4 cells/well). Before transfection, the medium was changed to Opti-MEM without any supplements. […] Luminescence was measured with a Spark 10 M luminometer (Tecan Deutschland GmbH). […] EC50/IC50 values and the standard errors thereof were calculated with the mean fold activation values by OriginPro, Version 2025 (OriginLab Corporation, Northampton, MA, USA), fitting a dose–response curve with a variable Hill slope (Levenberg–Marquardt algorithm). […]

[5] = tested on: HepG2 cells; assay: resazurin-based proliferation assay, HepG2; type: cell-based; details: 10 μM
Protocol: as §3

[6] = tested on: APOE; assay: qPCR of LXR-regulated mRNA expression in HepG2: APOE; type: cell-based, human; details: 1 μM, HepG2, 24 h
[7] = tested on: ABCA1; assay: qPCR of LXR-regulated mRNA expression in HepG2: ABCA1; type: cell-based, human; details: 1 μM, HepG2, 24 h
[8] = tested on: SREBP1c; assay: qPCR of LXR-regulated mRNA expression in HepG2: SREBP1c; type: cell-based, human; details: 1 μM, HepG2, 24 h

Row | Compound | classification ([1]; applies to LXRa and LXRb) | LXR modulation in Gal4 hybrid reporter gene assays (mode of action) ([1]; both LXR subtypes (LXRα and LXRβ)) | EC50 ([1]; classification agonist, read-out: LXRa pEC50/pIC50 (converted)) | antiproliferative effect [2] | EC50 [3] | LXR modulation in LXR-responsive ABCA1 reporter gene assay [4] | antiproliferative effect [5] | APOE mRNA expression [6] | APOE mRNA expression ([6]; listed as T090) | ABCA1 mRNA expression [7] | ABCA1 mRNA expression ([7]; listed as T090) | SREBP1c mRNA expression [8] | SREBP1c mRNA expression ([8]; listed as T090)
1 | CS(=O)(=O)c1cccc(N2CCN(c3ccc(Cl)c(C(F)(F)F)c3)CC2)c1 [Compound 2, 1-(4-Chloro-3-[trifluoromethyl]phenyl)-4-(3-[methylsulfonyl]phenyl)piperazine] | agonist | partial agonists | > 3.16 µM | did not inhibit the proliferation; also recorded: slightly reduced growth rate | > 3.16 µM | partial LXR agonists; also recorded: partial LXR agonism | did not inhibit the proliferation |  |  |  |  |  | 
2 | O=S(=O)(c1ccccc1)N(CC(F)(F)F)c1ccc(C(O)(C(F)(F)F)C(F)(F)F)cc1 [Compound T0901317, reference compound] |  |  |  |  |  |  |  | induced mRNA expression | induced | induced mRNA expression | induced | induced mRNA expression | induced

— PMC12621175, “Scaffold Fusion and SAR Transfer with a Chemical Language Model Generates Novel Liver X Receptor Modulators” (Journal of Medicinal Chemistry, 2025)
